{"source": "EPA's ToxRefDB 2", "key": {"mouse [1]": {"test_system": "mouse", "details": "Subchronic inhalation toxicity, b6c3f1, Whole-Body, dose end: 13 week, group: systemic, systemic / organ weight / kidney / absolute + systemic / organ weight / kidney / relative to body weight + systemic / organ weight / liver…"}, "rat": {"test_system": "rat", "details": "Prenatal developmental toxicity study, sprague dawley, Oral, Gavage/Intubation, dose end: 15 GD"}, "mouse [2]": {"test_system": "mouse", "details": "Multigenerational reproductive toxicity study, cd1, Oral, Water, dose end: 2 generation"}, "[3]": {"details": "group: developmental, developmental / developmental malformation / general / [other] + developmental / developmental malformation / general / anasarca + …"}, "[4]": {"details": "group: maternal, reproductive / reproductive performance / resorptions / resorptions + systemic / in life observation / body weight / body weight gain + …"}, "[5]": {"details": "group: maternal, systemic / organ weight / placenta / absolute"}, "[6]": {"details": "group: offspring, developmental / developmental malformation / bone / domed head + developmental / developmental malformation / nose / ecchymosis + systemic…"}, "[7]": {"details": "group: parental, systemic / organ weight / epididymis / absolute + systemic / organ weight / liver / absolute + systemic / organ weight / liver / relative to…"}, "[8]": {"details": "group: parental, systemic / organ weight / epididymis / absolute + systemic / organ weight / liver / absolute + systemic / pathology gross / sperm measure / …"}, "[9]": {"details": "group: reproductive, reproductive / reproductive performance / fertility / fertility + reproductive / offspring survival early / litter size / litter size + …"}}}
{"smiles": "CN(C)C=O", "note": "[N,N-Dimethylformamide]", "values": [{"measurement": "LEL", "setting": "mouse [1]", "value": 50, "unit": "ppm"}, {"measurement": "LOAEL", "setting": "mouse [1]", "value": "> 800", "unit": "ppm"}, {"measurement": "NEL", "setting": "mouse [1]", "value": "< 50", "unit": "ppm"}, {"measurement": "NOAEL", "setting": "mouse [1]", "value": "≥ 800", "unit": "ppm"}, {"measurement": "LOAEL", "setting": "rat; [3]", "value": "> 1510", "unit": "mg/kg/day"}, {"measurement": "NEL", "setting": "rat; [3]", "value": 166, "unit": "mg/kg/day"}, {"measurement": "NOAEL", "setting": "rat; [3]", "value": "≥ 1510", "unit": "mg/kg/day"}, {"measurement": "LEL", "setting": "rat; group: developmental, developmental / developmental malformation / general / [other] + developmental / developmental malformation / general / crown-rump length + …", "value": 503, "unit": "mg/kg/day"}, {"measurement": "LOAEL", "setting": "rat; [4]", "value": "> 1510", "unit": "mg/kg/day"}, {"measurement": "NOAEL", "setting": "rat; [4]", "value": "≥ 1510", "unit": "mg/kg/day"}, {"measurement": "LEL", "setting": "rat; [5]", "value": 166, "unit": "mg/kg/day"}, {"measurement": "NEL", "setting": "rat; [5]", "value": "< 166", "unit": "mg/kg/day"}, {"measurement": "LEL", "setting": "mouse [2]; [6]", "value": 545, "unit": "mg/kg/day"}, {"measurement": "LOAEL", "setting": "mouse [2]; [6]", "value": "> 1030", "unit": "mg/kg/day"}, {"measurement": "NEL", "setting": "mouse [2]; [6]", "value": 185, "unit": "mg/kg/day"}, {"measurement": "NOAEL", "setting": "mouse [2]; [6]", "value": "≥ 1030", "unit": "mg/kg/day"}, {"measurement": "LEL", "setting": "mouse [2]; [7]", "value": 185, "unit": "mg/kg/day"}, {"measurement": "NEL", "setting": "mouse [2]; [7]", "value": "< 185", "unit": "mg/kg/day"}, {"measurement": "LOAEL", "setting": "mouse [2]; [8]", "value": "> 1030", "unit": "mg/kg/day"}, {"measurement": "NOAEL", "setting": "mouse [2]; [8]", "value": "≥ 1030", "unit": "mg/kg/day"}, {"measurement": "NEL", "setting": "mouse [2]; group: reproductive, reproductive / reproductive performance / fertility / fertility", "value": 185, "unit": "mg/kg/day"}, {"measurement": "LEL", "setting": "mouse [2]; [9]", "value": 545, "unit": "mg/kg/day"}, {"measurement": "LOAEL", "setting": "mouse [2]; [9]", "value": "> 1030", "unit": "mg/kg/day"}, {"measurement": "NOAEL", "setting": "mouse [2]; [9]", "value": "≥ 1030", "unit": "mg/kg/day"}]}
